Laboratory results published in PubChem BioAssay (NCI).
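Dose response: 5 concentrations. Exposure: 48 h. Format: 96-well plates. Endpoint: linear interpolation; highest concentration if not reached. Abbreviation: GI50, concentration required for 50% inhibition of growth. Definition used: TGI = concentration required for complete inhibition of growth.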 Where a SMILES comes first, the peptide text is derived from it. [ ]: non-standard residue; d: D form. ξ: configuration not given here. Pentanoyl(2-O,4-OH,5-Cl) = O=C(O)C(O)CC(O)CCl; Ile(3ξ) = CCC(C)[C@H](N)C(=O)O; NMeV = CN[C@H](C(=O)O)C(C)C; NMeA = CN[C@@H](C)C(=O)O; βAla = NCCC(=O)O

Columns and labels:
Assay in all cases: NCI tumour cell line growth inhibition, 48 h
P388 leukemia = tested on: P388 leukemia
DMS 114 small cell lung = tested on: DMS 114 small cell lung
M19-MEL melanoma = tested on: M19-MEL melanoma
P388/ADR leukemia = tested on: P388/ADR leukemia
KM20L2 colon = tested on: KM20L2 colon
DMS 273 small cell lung = tested on: DMS 273 small cell lung
DLD-1 colon = tested on: DLD-1 colon
MDA-N = tested on: MDA-N
LXFL 529 NSCLC = tested on: LXFL 529 NSCLC
SNB-78 CNS = tested on: SNB-78 CNS
RXF-631 renal = tested on: RXF-631 renal

SMILES	TGI (DMS 114 small cell lung)	TGI (M19-MEL melanoma)	TGI (KM20L2 colon)	TGI (DMS 273 small cell lung)	TGI (DLD-1 colon)	TGI (MDA-N)	TGI (LXFL 529 NSCLC)	TGI (SNB-78 CNS)	also measured
CN(C)CCN1C(=O)c2cccc3cc(N)cc(c23)C1=O	12.7 µM	12.5 µM	23.5 µM	8.22 µM	27.7 µM	13.4 µM			TGI (P388 leukemia): 12.1 µM; TGI (P388/ADR leukemia): 11.8 µM
[O-]c1ccccc1C=NCCN=Cc1ccccc1[O-].[O]=[U+2]=[O]		> 66.3 µM	> 100 µM	> 100 µM	> 100 µM		53.3 µM		GI50 (M19-MEL melanoma): 32.2 µM; GI50 (KM20L2 colon): > 100 µM; GI50 (DMS 273 small cell lung): 32.5 µM; GI50 (DLD-1 colon): 27 µM; GI50 (LXFL 529 NSCLC): 17.8 µM
CS(=O)(=O)N(CCC#N)c1ccc(/C=C2\N=C(c3ccccc3Cl)OC2=O)cc1	> 100 µM	> 100 µM	> 100 µM	> 100 µM	> 100 µM		> 100 µM	> 100 µM	
CC[O-].CC[O-].[O-]c1ccccc1C=NC12CC3CC(CC(C3)C1)C2.[O-]c1ccccc1C=NC12CC3CC(CC(C3)C1)C2.[Ti+4]	> 100 µM	> 100 µM	> 100 µM	> 100 µM	> 100 µM		> 100 µM	> 100 µM	GI50 (DMS 114 small cell lung): 23.4 µM; GI50 (M19-MEL melanoma): > 100 µM; GI50 (KM20L2 colon): 45.6 µM; GI50 (DMS 273 small cell lung): > 100 µM; GI50 (SNB-78 CNS): > 100 µM; GI50 (RXF-631 renal): 29.4 µM; TGI (RXF-631 renal): > 100 µM; GI50 (DLD-1 colon): 11.1 µM; GI50 (LXFL 529 NSCLC): 23.5 µM
O=C(c1ccccc1)c1nc2ccc(Cl)cc2cc1C(Br)Br	4.02 µM	1.49 µM	0.808 µM	0.966 µM	0.706 µM		0.77 µM		
CC(C)CC(NC(=O)C(O)C(N)Cc1ccccc1)C(=O)O (configuration not stated)						> 100 µM			
Cc1cccc(-c2nc(=S)[nH][nH]2)c1		> 100 µM	> 100 µM	> 100 µM	> 100 µM		> 100 µM	> 100 µM	TGI (RXF-631 renal): > 100 µM
O=C1c2ccccc2C(=O)N1C/C=N/NS(=O)(=O)c1cccc([N+](=O)[O-])c1	> 100 µM	> 100 µM	> 100 µM	> 100 µM	> 100 µM		> 100 µM		
O=C1/C(=C/c2cc(O)c(O)c(O)c2)Oc2cc(O)cc(OC3OC(CO)C(O)C(O)C3O)c21 (configuration not stated)	> 100 µM	37.1 µM	74 µM	3.67 µM	42.4 µM		28 µM	68.5 µM	
CCC(C)[C@@H]1NC(=O)[C@@H]2CCCN2C(=O)C(CC(O)CCl)OC(=O)CCNC(=O)[C@H](C)N(C)C(=O)[C@H](C(C)C)N(C)C1=O (some centres not stated) (cyclo([Ile(3ξ)][NMeV][NMeA][βAla][Pentanoyl(2-O,4-OH,5-Cl)]P))						> 100 µM			
CC1=NC2(C(=O)O)C3(C(=O)O)N=C(C)OC3(C(F)(F)F)C2(C(F)(F)F)O1 (configuration not stated)	> 100 µM	> 100 µM	> 100 µM	> 100 µM	> 100 µM			> 100 µM	
[N-]=[N+]=NC1C(Cl)C(=O)NC(=O)N1[C@H]1C[C@H](O)[C@@H](CO)O1 (some centres not stated)	> 100 µM	> 100 µM	> 100 µM	> 100 µM	> 100 µM		> 100 µM	> 100 µM	GI50 (M19-MEL melanoma): 52.1 µM; TGI (RXF-631 renal): > 100 µM
CC(C)N1CCOC(c2ccc(O)c(O)c2)C1 (configuration not stated)	> 100 µM	> 100 µM	> 100 µM	> 100 µM	> 100 µM		> 100 µM	> 100 µM	TGI (RXF-631 renal): > 100 µM
O=C(O)c1c2c(c(O)c3c1CN(C1CCCCC1)CO3)OCN(C1CCCCC1)C2						> 100 µM			
O=c1cc(-c2cccc(Cl)c2)[nH]c2cc3c(cc12)OCO3	4.23 µM	75 µM		75 µM	8.57 µM	0.158 µM	2.73 µM		
CSC(=Nc1ccc([N+](=O)[O-])cc1C#N)NC(=O)c1ccccc1	> 100 µM	> 100 µM	> 100 µM		> 100 µM		> 100 µM	> 100 µM	TGI (RXF-631 renal): > 100 µM
O=C1C2C3SC(c4cc5ccccc5cc43)C2C(=O)N1c1ccccc1 (configuration not stated)	> 100 µM	> 100 µM	> 100 µM	> 100 µM			> 100 µM	> 100 µM	TGI (RXF-631 renal): > 100 µM
O=S1(=O)[C@H](c2ccccc2)c2c(-c3ccccc3)sc(-c3ccccc3)c2[C@@H]1c1ccccc1	> 100 µM	> 100 µM	> 100 µM	> 100 µM	> 100 µM		> 100 µM		
O=C(O)C1CCCN1 (configuration not stated)						> 100 µM			
COc1cc(OC)c(OC)cc1/C=C/c1ccccn1						> 10 µM			
C[C@]12CC[C@H]3[C@@H](CCC4=CC(=O)CC[C@@]43C)[C@]1(O)CC[C@]2(O)C(=O)CO						> 100 µM			
